According to patent US8999691B2 (priority 2010, dated 2015):
Positions count from the first letter of the chain named. In names and notes the source's numbering stands.

Experiments:
[1] = target: Botryotinia fuckeliana glucose dehydrogenase (Bfu-GDH, SEQ ID NO:2) variant N176K (Botrytis cinerea, UniProt A0A384K3P1, N192K); details: glucose 1-40 mM; pH 6.5; partially purified enzyme
Protocol: (§1) Site-specific mutagenesis was carried out by the QuikChange™ method. In the QuikChange™ method, the pET30c-Bfu-GDH created in Example 1 was used as the template, and amplified by PCR with mutagenesis primers. Next, DpnI was added to the reaction mixture and incubated at 37° C. for 60 minutes to digest the template DNA, and E. coli DH5a was transformed. After culturing overnight in an LB agar culture (50 μg/mL kanamycin), the plasmid was extracted from randomly selected clones, and the sequence was analyzed to confirm that the target mutation was introduced. The resulting PCR products were NdeI and HindIII digested (37° C., 2 hours), ligated with the same restriction enzyme-digested pET30c, and E. coli BL21(DE3) was transformed. After culturing overnight In an LB agar medium (50 μg/mL kanamycin), the plasmid was extracted from randomly selected clones, and the sequence was analyzed to confirm the mutation.
(§2) Transformants BL21(DE3) for expressing each of the modified enzymes were pre-cultured.

[2] = target: Botryotinia fuckeliana glucose dehydrogenase (Bfu-GDH, SEQ ID NO:2) variant N176S (Botrytis cinerea, UniProt A0A384K3P1, N192S); details: glucose 1-40 mM; pH 6.5; partially purified enzyme
Protocol: as §1, §2

[3] = target: Botryotinia fuckeliana glucose dehydrogenase (Bfu-GDH, SEQ ID NO:2) variant G53A (Botrytis cinerea, UniProt A0A384K3P1, G69A); details: glucose 1-40 mM; pH 6.5; partially purified enzyme
Protocol: as §1, §2

[4] = target: Botryotinia fuckeliana glucose dehydrogenase (Bfu-GDH, SEQ ID NO:2) variant N176R (Botrytis cinerea, UniProt A0A384K3P1, N192R); details: glucose 1-40 mM; pH 6.5; partially purified enzyme
Protocol: as §1, §2

[5] = target: Botryotinia fuckeliana glucose dehydrogenase (Bfu-GDH, SEQ ID NO:2) variant S514G (Botrytis cinerea, UniProt A0A384K3P1, S530G); details: glucose 1-40 mM; pH 6.5; partially purified enzyme
Protocol: as §1, §2

[6] = target: Botryotinia fuckeliana glucose dehydrogenase (Bfu-GDH, SEQ ID NO:2) variant S552C (Botrytis cinerea, UniProt A0A384K3P1, S568C); details: glucose 1-40 mM; pH 6.5; partially purified enzyme
Protocol: as §1, §2

[7] = target: Botryotinia fuckeliana glucose dehydrogenase (Bfu-GDH, SEQ ID NO:2) variant N176E (Botrytis cinerea, UniProt A0A384K3P1, N192E); details: glucose 1-40 mM; pH 6.5; partially purified enzyme
Protocol: as §1, §2

[8] = target: Botryotinia fuckeliana glucose dehydrogenase (Bfu-GDH, SEQ ID NO:2) variant G53A/S514G (Botrytis cinerea, UniProt A0A384K3P1, G69A/S530G); details: glucose 1-40 mM; pH 6.5; partially purified enzyme
Protocol: as §1, §2

[9] = target: Botryotinia fuckeliana glucose dehydrogenase (Bfu-GDH, FAD-GDH), wild type, SEQ ID NO:2 (Botrytis cinerea, UniProt A0A384K3P1); experiment: Michaelis-Menten saturation kinetics with glucose (DCIP/PMS dehydrogenase assay); assay type: biochemical
Description: as §2

[10] = substrate: OC[C@H]1OC(O)[C@H](O)[C@@H](O)[C@@H]1O; experiment: purified protein, by the assay type; assay type: biochemical, Aspergillus oryzae T1; details: other: glucose, DCIP/PMS, pH 6.5, enzyme expressed 20° C./28 h
Description: According to a prediction from the SignalP 3.0 Server, the region from the N-terminus to the Lys residue at the position 23 was predicted to be a signal peptide. A nucleotide sequence which encodes the amino acid sequence having the initiation methionine and the downstream sequence from the Asn residue at the position 24 was designed and totally synthesized. The amino acid sequence of the protein (referred to below as “Ao-GDH”) encoded by the gene thus obtained is shown in SEQ ID NO:4. E. coli BL21(DE3) (F—, ompT, hsdSB(rB- mB-), gal(λcI 857, ind1, Sam7, nin5, LacUV5-T7gene1), dcm(DE3): from Novagen) was used as the host for recombinant production. The gene expression vector used was pET30c (kan, LacI; from Novagen), and the chaperone co-expression vector used was pGro7 (GroEL, GroES; from TaKaRa).
(§3) (10-fold dilution at a final concentration).

[11] = substrate: OC[C@H]1OC(O)[C@H](O)[C@@H](O)[C@@H]1O; experiment: purified protein, by the assay type; assay type: biochemical, Aspergillus oryzae T1; details: other: glucose, DCIP/PMS, pH 6.5, enzyme expressed 20° C./28 h; remark: listed apart in the source
Description: as §3

With `OC[C@H]1OC(O)[C@H](O)[C@@H](O)[C@@H]1O` (some centres unmarked) [glucose] the “Vmax (apparent maximum activity)” value [1] was 25.1 U/mg protein, the “Vmax (apparent maximum activity)” value [2] was 11.5 U/mg protein and the “Vmax (apparent maximum activity)” value [3] was 8.1 U/mg protein. For the same molecule, the “Vmax (apparent maximum activity)” value [4] was 24.9 U/mg protein, the “Vmax (apparent maximum activity)” value [5] was 36.6 U/mg protein and the “Vmax (apparent maximum activity)” value [6] was 7.8 U/mg protein. The “Vmax (apparent maximum activity)” value [7] was 10.4 U/mg protein, the “Vmax (apparent maximum activity)” value [8] was 8.9 U/mg protein and the Vmax ([9]; Table 3 (unit not given), glucose) was 8.7. For the same molecule, the “Vmax (apparent maximum activity)” value ([9]; glucose 1-40 mM, pH 6.5, partially purified enzyme) was 8.7 U/mg protein.

B1: Aspergillus oryzae T1 glucose dehydrogenase (Ao-GDH, FAD-GDH), wild type, SEQ ID NO:4 (Aspergillus oryzae) (protein)
chain: MNTTTYDYIVVGGGTSGLVVANRLSENPDVSVLLLEAGASVFNNPDVTNANGYGLAFGSAIDWQYQSINQSYAGGKQQVLRAGKALGGTSTINGMAYTRAEDVQIDVWQKLGNEGWTWKDLLPYYLKSENLTAPTSSQVAAGAAYNPAVNGKEGPLKVGWSGSLASGNLSVALNRTFQAAGVPWVEDVNGGKMRGFNIYPSTLDVDLNVREDAARAYYFPYDDRKNLHLLENTTANRLFWKNGSAEEAIADGVEITSADGKVTRVHAKKEVIISAGALRSPLILELSGVGNPTILKKNNITPRVDLPTVGENLQDQFNNGMAGEGYGVLAGASTVTYPSISDVFGNETDSIVASLRSQLSDYAAATVKVSNGHMKQEDLERLYQLQFDLIVKDKVPIAEILFHPGGGNAVSSEFWGLLPFARGNIHISSNDPTAPAAINPNYFMFEWDGKSQAGIAKYIRKILRSAPLNKLIAKETKPGLSEIPATAADEKWVEWLKANYRSNFHPVGTAAMMPRSIGGVVDNRLRVYGTSNVRVVDASVLPFQVCGHLVSTLYAVAERASDLIKEDAKSA
B1 gave a Km [10] of 44.7 mM and a Vmax [10] of 120 µmol/min/mg.

B2: Aspergillus oryzae T1 glucose dehydrogenase (Ao-GDH, SEQ ID NO:4) variant G190C (Aspergillus oryzae; G212C) (protein)
chain: B1 chain with G190C
B2 was tested, and the Km [11] was 51.3 mM and the Vmax [11] was 119 µmol/min/mg.
